Laboratory results taken from US10023590B2, “Substituted pyridine compounds having herbicidal activity” (BASF SE, priority 2014, dated 2018).

How the values were obtained:
Type in all cases: in vivo
Kochia scoparia = test: Greenhouse post-emergence herbicidal activity, KCHSC; conditions: scale 0 to 100
Text: (§1) The culture containers used were plastic flowerpots containing loamy sand with approximately 3.0% of humus as the substrate. The seeds of the test plants were sown separately for each species.
(§2) For the post-emergence treatment, the test plants were first grown to a height of 3 to 15 cm, depending on the plant habit, and only then treated with the active ingredients which had been suspended or emulsified in water. For this purpose, the test plants were either sown directly and grown in the same containers, or they were first grown separately as seedlings and transplanted into the test containers a few days prior to treatment.
(§3) Depending on the species, the plants were kept at 10-25° C. or 20-35° C., respectively.
(§4) The test period extended over 2 to 4 weeks. During this time, the plants were tended, and their response to the individual treatments was evaluated.
(§5) Evaluation was carried out using a scale from 0 to 100. 100 means no emergence of the plants, or complete destruction of at least the aerial moieties, and 0 means no damage, or normal course of growth. A good herbicidal activity is given at values of at least 70 and a very good herbicidal activity is given at values of at least 85.

Cirsium arvense = test: Greenhouse post-emergence herbicidal activity, CIRAR; conditions: CIRAR, scale 0 to 100
Text: as §1, §2, §3, §4, §5

Zea mays = test: Greenhouse post-emergence herbicidal activity on crop ZEAMX (corn, maize); set-up: key: 0 = no damage/normal growth, 100 = no emergence or complete destruction; conditions: ZEAMX (corn, crop), scale 0 to 100
Text: as §1, §2, §3, §4, §5

Setaria faberi = test: Greenhouse post-emergence herbicidal activity, SETFA; conditions: 2 kg/ha, scale 0 to 100
Text: as §1, §2, §3, §4, §5

Oryza sativa = test: Greenhouse post-emergence herbicidal activity on crop ORYSA (rice); conditions: ORYSA (rice, crop), scale 0 to 100
Text: as §1, §2, §3, §4, §5

Digitaria sanguinalis = test: Greenhouse post-emergence herbicidal activity, DIGSA; conditions: scale 0 to 100
Text: as §1, §2, §3, §4, §5

Amaranthus retroflexus = test: Greenhouse post-emergence herbicidal activity, AMARE; conditions: AMARE; for pest or weed control at 125 g/ha: 0.125 kg/ha; for pest or weed control at 2000 g/ha: 2 kg/ha, scale 0 to 100, read-out: Herbicidal activity
Text: as §1, §2, §3, §4, §5

Polygonum persicaria = test: Greenhouse post-emergence herbicidal activity, POLPE; conditions: 0.063 kg/ha, scale 0 to 100
Text: as §1, §2, §3, §4, §5

Chenopodium album = test: Greenhouse post-emergence herbicidal activity, CHEAL; conditions: scale 0 to 100; for pest or weed control at 31 g/ha: 0.031 kg/ha; for pest or weed control at 63 g/ha: 0.063 kg/ha; for pest or weed control at 125 g/ha: 0.125 kg/ha
Text: as §1, §2, §3, §4, §5

Stellaria media = test: Greenhouse post-emergence herbicidal activity, STEME; conditions: scale 0 to 100
Text: as §1, §2, §3, §4, §5

Abutilon theophrasti = test: Greenhouse post-emergence herbicidal activity, ABUTH; conditions: ABUTH
Text: as §1, §2, §3, §4, §5

Setaria viridis = test: Greenhouse post-emergence herbicidal activity, SETVI; conditions: 2 kg/ha, scale 0 to 100
Text: as §1, §2, §3, §4, §5

Echinocloa crus-galli = test: Greenhouse post-emergence herbicidal activity, ECHCG; conditions: Echinochloa crus-galli, ECHCG, 2 kg/ha, scale 0 to 100, read-out: Herbicidal activity
Text: as §1, §2, §3, §4, §5

Ambrosia artemisiifolia = test: Greenhouse post-emergence herbicidal activity, AMBEL; conditions: scale 0 to 100
Text: as §1, §2, §3, §4, §5

Veronica arvensis = test: Greenhouse post-emergence herbicidal activity, VERAR; conditions: scale 0 to 100
Text: as §1, §2, §3, §4, §5

SMILES | Herbicidal activity (Kochia scoparia; 0.031 kg/ha) | Herbicidal activity (Kochia scoparia; 0.063 kg/ha) | Herbicidal activity (Zea mays; 0.031 kg/ha) | Herbicidal activity (Zea mays; 0.063 kg/ha) | Herbicidal activity (Zea mays; 0.125 kg/ha) | Herbicidal activity (Oryza sativa; 0.031 kg/ha) | Herbicidal activity (Oryza sativa; 0.063 kg/ha) | pest or weed control at 125 g/ha (Amaranthus retroflexus; scale 0 to 100) [%] | pest or weed control at 2000 g/ha (Amaranthus retroflexus) [%] | pest or weed control at 31 g/ha (Chenopodium album) [%] | pest or weed control at 63 g/ha (Chenopodium album) [%] | pest or weed control at 125 g/ha (Chenopodium album) [%] | Herbicidal activity (Stellaria media; 0.125 kg/ha) | Herbicidal activity (Oryza sativa; 0.125 kg/ha) | Herbicidal activity (Setaria viridis) | other results
CS(=O)(=O)Nc1ccc(Cl)c(C2=C(O)c3ncccc3CS2(=O)=O)c1Cl [I-5, N-[2,4-dichloro-3-(8-hydroxy-6,6-dioxo-5H-thiopyrano[4,3-b]pyridin-7-yl)phenyl]methanesulfonamide] | 90 | 95 | 0 | 0 | 0 | 25 | 35 | 95 | 98 | – | – | – | – | – | – | pest or weed control at 31 g/ha (Cirsium arvense; 0.031 kg/ha): 75%; pest or weed control at 125 g/ha (Cirsium arvense; 0.125 kg/ha): 90%; Herbicidal activity (Setaria faberi): 100; Herbicidal activity (Digitaria sanguinalis; 0.063 kg/ha): 90; Herbicidal activity (Digitaria sanguinalis; 0.125 kg/ha): 95; pest or weed control at 31 g/ha (Amaranthus retroflexus; 0.031 kg/ha, scale 0 to 100): 75%; pest or weed control at 63 g/ha (Amaranthus retroflexus; 0.063 kg/ha, scale 0 to 100): 95%
CN(c1ccc(Cl)c(C2=C(O)c3ncccc3C(C)(C)S2(=O)=O)c1Cl)S(C)(=O)=O [I-7, N-[2,4-dichloro-3-(8-hydroxy-5,5-dimethyl-6,6-dioxo-thiopyrano[4,3-b]pyridin-7-yl)phenyl]-N-methyl-methanesulfonamide] | – | – | 0 | 0 | 20 | 0 | 0 | 90 | – | 95 | 85 | 98 | 100 | 10 | – | Herbicidal activity (Polygonum persicaria): 80; pest or weed control at 250 g/ha (Chenopodium album; 0.25 kg/ha): 100%; Herbicidal activity (Stellaria media; 0.063 kg/ha): 100; Herbicidal activity (Stellaria media; 0.25 kg/ha): 100; Herbicidal activity (Oryza sativa; 0.25 kg/ha): 15; pest or weed control at 250 g/ha (Abutilon theophrasti; 0.25 kg/ha, scale 0 to 100): 100%
CC(C)N(c1c(Cl)ccc(C2=C(O)c3ncccc3CS2(=O)=O)c1Cl)S(C)(=O)=O [I-10, N-[2,6-dichloro-3-(8-hydroxy-6,6-dioxo-5H-thiopyrano[4,3-b]pyridin-7-yl)phenyl]-N-isopropyl-methanesulfonamide] | – | – | – | – | 10 | 10 | 10 | 70 | 100 | 85 | 85 | 90 | – | 15 | 98 | pest or weed control at 2000 g/ha (Abutilon theophrasti; 2 kg/ha, scale 0 to 100, read-out: Herbicidal activity): 98%
Cc1c(C2=C(O)c3ncccc3C(C)(C)S2(=O)=O)cccc1N(C)S(C)(=O)=O [I-14, N-[3-(8-hydroxy-5,5-dimethyl-6,6-dioxo-thiopyrano[4,3-b]pyridin-7-yl)-2-methyl-phenyl]-N-methyl-methanesulfonamide] | 95 | 100 | 15 | 20 | 35 | 0 | 0 | – | 100 | 98 | – | 100 | 100 | 10 | 100 | pest or weed control at 2000 g/ha (Echinocloa crus-galli): 98%; Herbicidal activity (Ambrosia artemisiifolia; 0.063 kg/ha): 100; Herbicidal activity (Ambrosia artemisiifolia; 0.125 kg/ha): 100; Herbicidal activity (Veronica arvensis; 0.031 kg/ha): 100; Herbicidal activity (Veronica arvensis; 0.063 kg/ha): 100
